Source: patent publication US20250122183A1 (Pfizer Inc., priority 2023, published 2025)
Like-named read-outs stand apart in the source and are kept apart here.

Experiments:
Type in all cases: biochemical
Conditions in all cases: replicate number in parentheses
[1] = target: KAT6A Full length enzyme (Homo sapiens (Human), UniProt Q92794); assay: KAT6A assay (SAMDI-MS acetylation of H3 1-21 peptide)
[2] = target: KAT8 Full length enzyme (Homo sapiens (Human), UniProt Q9H7Z6); assay: KAT8 assay (SAMDI-MS acetylation of H3 1-21 peptide)
[3] = target: KAT7+JADE1+EAF6+ING5 4 protein complex (Homo sapiens (Human), UniProt O95251); assay: KAT7 JADE1 assay (SAMDI-MS acetylation of H3 1-21 peptide)
[4] = Morrison equation fit, read-out: KAT6A Ki (nM) (replicate number)
[5] = Morrison equation fit, read-out: KAT8 Ki (nM) (replicate number)
[6] = Morrison equation fit, read-out: KAT7 JADE1 Ki (nM) (replicate number)
[7] = read-out: KAT6A Ki (nM) (replicate)
[8] = read-out: KAT8 Ki (nM) (replicate)
[9] = read-out: KAT7 JADE1 Ki (nM) (replicate)

KAT6A Full length enzyme, sequence (Q92794 other isoform, or with tags, fused parts or gaps): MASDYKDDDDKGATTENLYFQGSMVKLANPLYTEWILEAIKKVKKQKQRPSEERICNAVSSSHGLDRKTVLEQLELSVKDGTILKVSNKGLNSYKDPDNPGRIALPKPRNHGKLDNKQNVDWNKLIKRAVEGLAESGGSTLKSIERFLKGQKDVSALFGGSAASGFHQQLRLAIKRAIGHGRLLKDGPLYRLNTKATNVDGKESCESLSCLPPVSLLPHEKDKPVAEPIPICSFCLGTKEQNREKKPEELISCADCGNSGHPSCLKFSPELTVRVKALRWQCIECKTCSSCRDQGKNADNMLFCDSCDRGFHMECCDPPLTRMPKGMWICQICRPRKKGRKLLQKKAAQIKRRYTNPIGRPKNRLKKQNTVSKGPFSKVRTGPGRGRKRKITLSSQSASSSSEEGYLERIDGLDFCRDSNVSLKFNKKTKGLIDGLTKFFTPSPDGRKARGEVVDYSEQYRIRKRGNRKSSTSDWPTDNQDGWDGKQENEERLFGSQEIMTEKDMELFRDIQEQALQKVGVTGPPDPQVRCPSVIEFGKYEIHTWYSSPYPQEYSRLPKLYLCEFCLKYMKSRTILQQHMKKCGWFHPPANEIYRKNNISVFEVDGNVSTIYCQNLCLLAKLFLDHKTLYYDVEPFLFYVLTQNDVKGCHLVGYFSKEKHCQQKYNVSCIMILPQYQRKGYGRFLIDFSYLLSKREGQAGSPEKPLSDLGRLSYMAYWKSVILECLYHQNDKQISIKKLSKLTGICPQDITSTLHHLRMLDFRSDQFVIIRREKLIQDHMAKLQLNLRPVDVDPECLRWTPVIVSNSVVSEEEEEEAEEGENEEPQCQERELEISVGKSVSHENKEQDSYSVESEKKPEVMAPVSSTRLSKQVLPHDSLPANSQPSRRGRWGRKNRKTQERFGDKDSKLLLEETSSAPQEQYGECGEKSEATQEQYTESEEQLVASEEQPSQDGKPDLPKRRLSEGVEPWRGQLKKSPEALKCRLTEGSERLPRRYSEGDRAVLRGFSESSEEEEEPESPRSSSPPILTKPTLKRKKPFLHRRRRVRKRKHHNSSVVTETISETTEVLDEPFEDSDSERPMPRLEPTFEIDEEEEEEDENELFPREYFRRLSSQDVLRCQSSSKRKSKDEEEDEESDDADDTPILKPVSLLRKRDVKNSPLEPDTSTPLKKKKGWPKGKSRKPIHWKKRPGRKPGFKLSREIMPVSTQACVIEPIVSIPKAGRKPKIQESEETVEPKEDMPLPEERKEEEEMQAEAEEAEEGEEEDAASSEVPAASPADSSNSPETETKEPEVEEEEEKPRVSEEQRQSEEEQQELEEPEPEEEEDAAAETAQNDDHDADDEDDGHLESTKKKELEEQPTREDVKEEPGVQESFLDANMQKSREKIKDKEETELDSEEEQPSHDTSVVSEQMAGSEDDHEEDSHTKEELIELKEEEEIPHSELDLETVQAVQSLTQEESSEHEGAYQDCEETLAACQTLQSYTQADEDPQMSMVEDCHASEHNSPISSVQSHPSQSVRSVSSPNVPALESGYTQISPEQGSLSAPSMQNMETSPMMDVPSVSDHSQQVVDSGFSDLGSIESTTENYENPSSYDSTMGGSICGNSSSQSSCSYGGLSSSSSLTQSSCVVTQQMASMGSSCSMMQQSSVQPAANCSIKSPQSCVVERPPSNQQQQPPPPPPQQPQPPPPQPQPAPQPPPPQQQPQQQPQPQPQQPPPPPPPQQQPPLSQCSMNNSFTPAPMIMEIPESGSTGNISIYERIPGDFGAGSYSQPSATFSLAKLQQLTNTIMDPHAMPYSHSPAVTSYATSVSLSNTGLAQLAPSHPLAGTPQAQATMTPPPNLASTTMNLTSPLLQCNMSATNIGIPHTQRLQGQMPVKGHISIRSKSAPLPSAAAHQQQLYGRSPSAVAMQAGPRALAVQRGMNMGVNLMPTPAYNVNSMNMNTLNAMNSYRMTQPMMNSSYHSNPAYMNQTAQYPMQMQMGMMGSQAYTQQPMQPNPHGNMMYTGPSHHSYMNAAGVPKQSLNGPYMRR
KAT8 Full length enzyme, sequence (Q9H7Z6 whole entry): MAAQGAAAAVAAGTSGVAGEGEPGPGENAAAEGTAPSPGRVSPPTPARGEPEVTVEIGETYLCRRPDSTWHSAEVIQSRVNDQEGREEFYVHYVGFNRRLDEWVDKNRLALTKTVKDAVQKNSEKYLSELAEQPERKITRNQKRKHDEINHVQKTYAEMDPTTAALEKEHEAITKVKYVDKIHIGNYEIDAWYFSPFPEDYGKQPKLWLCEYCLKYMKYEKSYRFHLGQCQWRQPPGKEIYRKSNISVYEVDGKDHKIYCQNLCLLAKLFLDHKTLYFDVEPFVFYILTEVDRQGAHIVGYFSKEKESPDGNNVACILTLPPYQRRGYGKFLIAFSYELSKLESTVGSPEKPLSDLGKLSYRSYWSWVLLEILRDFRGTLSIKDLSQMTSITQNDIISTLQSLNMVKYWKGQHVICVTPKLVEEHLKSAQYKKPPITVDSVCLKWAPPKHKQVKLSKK

Row | Compound | Ki [1, 4] [nM] | Ki [2, 5] [nM] | Ki [3, 6] [nM] | Ki [1, 7] [nM] | Ki [2, 8] [nM] | Ki [3, 9] [nM]
1 | COc1cc2c(NS(=O)(=O)c3c(OC)cc(C4CCCN(C)C4)cc3OC)noc2cc1Nc1cc(C2CC2)n[nH]1 (single isomer, unassigned) [Example 149, N-{6-[(3-cyclopropyl-1H-pyrazol-5-yl)amino]-5-methoxy-1,2-benzoxazol-3-yl}-2,6-dimethoxy-4-(1-methylpiperidin-3-yl)benzene-1-sulfonamide] | 0.6 | 19000 | 5.3 | – | – | –
2 | COc1cc2c(NS(=O)(=O)c3c(OC)cc(C4CCCN(C)C4)cc3OC)noc2cc1Nc1cc(C2CC2)n[nH]1 (single isomer, unassigned) [Example 150, N-{6-[(3-cyclopropyl-1 H-pyrazol-5-yl)amino]-5-methoxy-1,2-benzoxazol-3-yl}-2,6-dimethoxy-4-(1-methylpiperidin-3-yl)benzene-1-sulfonamide] | 0.8 | 10300 | 6.3 | – | – | –
3 | COc1cc2c(NS(=O)(=O)c3c(OC)cc(C(C)OC)cc3OC)noc2cc1Nc1cc(C2CC2)[nH]n1 (single isomer, unassigned) [Example 272, N-{6-[(5-cyclopropyl-1H-pyrazol-3-yl)amino]-5-methoxy-1,2-benzoxazol-3-yl}-2,6-dimethoxy-4-(1-methoxyethyl)benzene-1-sulfonamide] | – | – | – | 0.7 | 2650 | 5
4 | COc1cc2c(NS(=O)(=O)c3c(OC)cc(C(C)OC)cc3OC)noc2cc1Nc1cc(C2CC2)[nH]n1 (single isomer, unassigned) [Example 273, N-{6-[(5-cyclopropyl-1H-pyrazol-3-yl)amino]-5-methoxy-1,2-benzoxazol-3-yl}-2,6-dimethoxy-4-(1-methoxyethyl)benzene-1-sulfonamide] | – | – | – | 0.6 | 2020 | 4.7
5 | COc1cc2c(NS(=O)(=O)c3c(OC)cc(-c4cnc(N(C)C)cn4)cc3OC)noc2cc1Nc1cc(C2CC2)n[nH]1 [Example 217, N-{6-[(3-cyclopropyl-1H-pyrazol-5-yl)amino]-5-methoxy-1,2-benzoxazol-3-yl}-4-[5-(dimethylamino)pyrazin-2-yl]-2,6-dimethoxybenzene-1-sulfonamide] | 0.2 | – | 1.9 | – | – | –
6 | COc1cc2c(NS(=O)(=O)c3c(OC)cc(-c4ncc(N(C)C)cn4)cc3OC)noc2cc1Nc1cc(C2CC2)n[nH]1 [Example 218, N-{6-[(3-cyclopropyl-1H-pyrazol-5-yl)amino]-5-methoxy-1,2-benzoxazol-3-yl}-4-[5-(dimethylamino)pyrimidin-2-yl]-2,6-dimethoxybenzene-1-sulfonamide] | 0.1 | – | 0.4 | – | – | –
7 | COc1cc2c(NS(=O)(=O)c3c(OC)cc(-c4ccc(C)nn4)cc3OC)noc2cc1Nc1cc(C2CC2)n[nH]1 [Example 219, N-{6-[(3-cyclopropyl-1H-pyrazol-5-yl)amino]-5-methoxy-1,2-benzoxazol-3-yl}-2,6-dimethoxy-4-(6-methylpyridazin-3-yl)benzene-1-sulfonamide] | 0.2 | – | 1.9 | – | – | –
8 | COc1cc2c(NS(=O)(=O)c3c(OC)cc(-c4cc5n(n4)CCOC5)cc3OC)noc2cc1Nc1cc(C2CC2)n[nH]1 [Example 220, N-{6-[(3-cyclopropyl-1H-pyrazol-5-yl)amino]-5-methoxy-1,2-benzoxazol-3-yl}-4-(6,7-dihydro-4H-pyrazolo[5,1-c][1,4]oxazin-2-yl)-2,6-dimethoxybenzene-1-sulfonamide] | 0.4 | – | 4 | – | – | –
9 | COc1cc2c(NS(=O)(=O)c3c(OC)cc(-c4ncc(C#N)cn4)cc3OC)noc2cc1Nc1cc(C2CC2)n[nH]1 [Example 224, 4-(5-cyanopyrimidine-2-yl)-N-{6-[(3-cyclopropyl-1 H-pyrazol-5-yl)amino]-5-methoxy-1,2-benzoxazol-3-yl}-2,6-dimethoxybenzene-1-sulfonamide] | 1.5 | – | 7.2 | – | – | –
10 | COc1cc2c(NS(=O)(=O)c3c(OC)cc(-c4ncc5c(n4)CN(C)CC5)cc3OC)noc2cc1Nc1cc(C2CC2)n[nH]1 [Example 225, N-{6-[(3-cyclopropyl-1 H-pyrazol-5-yl)amino]-5-methoxy-1,2-benzoxazol-3-yl}-2,6-dimethoxy-4-(7-methyl-5,6,7,8-tetrahydropyrido[3,4-d]pyrimidin-2-yl)benzene-1-sulfonamide] | 0.6 | – | 7 | – | – | –
11 | CCc1cc(Nc2cc3onc(NS(=O)(=O)c4c(OC)cc(-c5nccn5C)cc4OC)c3cc2OC)[nH]n1 [Example 237, N-{6-[(3-ethyl-1H-pyrazol-5-yl)amino]-5-methoxy-1,2-benzoxazol-3-yl}-2,6-dimethoxy-4-(1-methyl-1H-imidazol-2-yl)benzene-1-sulfonamide] | 1.4 | – | 15.4 | – | – | –
12 | CCc1cc(Nc2cc3onc(NS(=O)(=O)c4c(OC)cc(-c5cn(C)cn5)cc4OC)c3cc2OC)[nH]n1 [Example 238, N-{6-[(3-ethyl-1H-pyrazol-5-yl)amino]-5-methoxy-1,2-benzoxazol-3-yl}-2,6-dimethoxy-4-(1-methyl-1H-imidazol-4-yl)benzene-1-sulfonamide] | 1.2 | – | 12.7 | – | – | –
13 | COc1cc2c(NS(=O)(=O)c3c(OC)cc(N4CC(F)C4)cc3OC)noc2cc1Nc1cc(C2CC2)n[nH]1 [Example 252, N-{6-[(3-cyclopropyl-1H-pyrazol-5-yl)amino]-5-methoxy-1,2-benzoxazol-3-yl}-4-(3-fluoroazetidin-1-yl)-2,6-dimethoxybenzene-1-sulfonamide] | – | – | – | 0.8 | – | 5.7
14 | COc1cc2c(NS(=O)(=O)c3c(OC)cc(N4CC(OC)C4)cc3OC)noc2cc1Nc1cc(C2CC2)n[nH]1 [Example 253, N-{6-[(3-cyclopropyl-1H-pyrazol-5-yl)amino]-5-methoxy-1,2-benzoxazol-3-yl}-2,6-dimethoxy-4-(3-methoxyazetidin-1-yl)benzene-1-sulfonamide] | – | – | – | 0.6 | – | 5
15 | COc1cc2c(NS(=O)(=O)c3c(OC)cc(N4C(=O)CCC45CCC5)cc3OC)noc2cc1Nc1cc(C2CC2)n[nH]1 [Example 255, N-{6-[(3-cyclopropyl-1 H-pyrazol-5-yl)amino]-5-methoxy-1,2-benzoxazol-3-yl}-2,6-dimethoxy-4-(6-oxo-5-azaspiro[3.4]octan-5-yl)benzene-1-sulfonamide] | – | – | – | 0.8 | – | 4.2
16 | COc1cc2c(NS(=O)(=O)c3c(OC)cc(C(=O)N4CCC(F)(F)C4)cc3OC)noc2cc1Nc1cc(C2CC2)n[nH]1 [Example 257, N-{6-[(3-cyclopropyl-1H-pyrazol-5-yl)amino]-5-methoxy-1,2-benzoxazol-3-yl}-4-(3,3-difluoropyrrolidine-1-carbonyl)-2,6-dimethoxybenzene-1-sulfonamide] | – | – | – | 1.6 | – | 9.5
17 | COc1cc2c(NS(=O)(=O)c3c(OC)cc(C(=O)N4CC[C@@H](F)C4)cc3OC)noc2cc1Nc1cc(C2CC2)n[nH]1 [Example 258, N-{6-[(3-cyclopropyl-1H-pyrazol-5-yl)amino]-5-methoxy-1,2-benzoxazol-3-yl}-4-[(3R)-3-fluoropyrrolidine-1-carbonyl]-2,6-dimethoxybenzene-1-sulfonamide] | – | – | – | 1 | – | 5.9
18 | COc1cc2c(NS(=O)(=O)c3c(OC)cc(C(=O)N4CCC[C@@H](F)C4)cc3OC)noc2cc1Nc1cc(C2CC2)n[nH]1 [Example 260, N-{6-[(3-cyclopropyl-1H-pyrazol-5-yl)amino]-5-methoxy-1,2-benzoxazol-3-yl}-4-[(3R)-3-fluoropiperidine-1-carbonyl]-2,6-dimethoxybenzene-1-sulfonamide] | – | – | – | 1 | – | 6.7
19 | COc1cc2c(NS(=O)(=O)c3c(OC)cc(C(=O)N4CCC[C@H](F)C4)cc3OC)noc2cc1Nc1cc(C2CC2)n[nH]1 [Example 261, N-{6-[(3-cyclopropyl-1H-pyrazol-5-yl)amino]-5-methoxy-1,2-benzoxazol-3-yl}-4-[(3S)-3-fluoropiperidine-1-carbonyl]-2,6-dimethoxybenzene-1-sulfonamide] | – | – | – | 1.1 | – | 6.7
20 | COc1cc2c(NS(=O)(=O)c3c(OC)cc(C(=O)N4CC(F)C4)cc3OC)noc2cc1Nc1cc(C2CC2)n[nH]1 [Example 262, N-{6-[(3-cyclopropyl-1H-pyrazol-5-yl)amino]-5-methoxy-1,2-benzoxazol-3-yl}-4-(3-fluoroazetidine-1-carbonyl)-2,6-dimethoxybenzene-1-sulfonamide] | – | – | – | 1 | – | 8.1
21 | COc1cc2c(NS(=O)(=O)c3c(OC)cc(C(=O)N4CCC(F)(F)CC4)cc3OC)noc2cc1Nc1cc(C2CC2)n[nH]1 [Example 263, N-{6-[(3-cyclopropyl-1H-pyrazol-5-yl)amino]-5-methoxy-1,2-benzoxazol-3-yl}-4-(4,4-difluoropiperidine-1-carbonyl)-2,6-dimethoxybenzene-1-sulfonamide] | – | – | – | 1.4 | – | 9.8
22 | COc1cc2c(NS(=O)(=O)c3c(OC)cc(C(=O)N4CC(F)(F)C4)cc3OC)noc2cc1Nc1cc(C2CC2)n[nH]1 [Example 264, N-{6-[(3-cyclopropyl-1H-pyrazol-5-yl)amino]-5-methoxy-1,2-benzoxazol-3-yl}-4-(3,3-difluoroazetidine-1-carbonyl)-2,6-dimethoxybenzene-1-sulfonamide] | – | – | – | 2.3 | – | 17.6
23 | COc1cc2c(NS(=O)(=O)c3c(OC)cc(C4CCO4)cc3OC)noc2cc1Nc1cc(C2CC2)n[nH]1 (stereo not shown) [Example 276, N-{6-[(3-cyclopropyl-1H-pyrazol-5-yl)amino]-5-methoxy-1,2-benzoxazol-3-yl}-2,6-dimethoxy-4-(oxetan-2-yl)benzene-1-sulfonamide] | – | – | – | 1.3 | – | 16.8
24 | N-{6-[(3-cyclopropyl-1 H-pyrazol-5-yl)amino]-5-methoxy-1,2-benzoxazol-3-yl}-4-(4,4-difluoro-1-methylpiperidin-3-yl)-2,6-dimethoxybenzene-1-sulfonamide [Example 176] | 1 | – | 2.7 | – | – | –
